Results on four compounds are retold here after US20190069542A1, “COMPOSITIONS AND METHODS FOR REPELLING AND KILLING TICKS AND DETACHMENT OF FEEDING TICKS” (EVOLVA SA, priority 2016, published 2019).

Several values for one entry are separate records, joined by “and”; a condition that tells them apart may be missing. Equal entries are not always repeated.

The subject of data set [1] is ticks. Briefly: Shell-vial bioassay of morbidity and mortality of ticks. It is filed as in vivo. The note with it: for LC50: calculated at 24 hours from Table No. 7. As for the experimental part: Next, a shell-vial bioassay was performed to determine whether the nootkatone of the test products (i.e., space spray, lotion, and soap) lost biocidal activity due to the formulation process. The nootkatone derivatives from Example No. 1 were also tested to determine relative biocidal activity. Serial dilutions of each 2% product and nootkatone derivatives were made for a total of 8 concentrations per formulation/derivative. Controls included untreated controls and a nootkatone in acetone composition as a positive control. One hundred and fifty microliters of each concentration was added to a 1 dram glass shell vial and allowed to dry (see FIGS. 3A and 3B).
Each shell vial with ticks added was placed in a humid container, and morbidity and mortality of ticks were determined at 1 hr and 24 hr post-treatment. Each experiment was performed twice and the results averaged. […]

Data set [2] in a line: Solvent dissolution tests of nootkatone. It is filed as physicochemical. Particulars: data not shown. The procedure: Initially, solvent dissolution tests of nootkatone were performed.

Consider `C=C(C)[C@@H]1CCC2CC(=O)C[C@@H](C)[C@]2(C)C1` (stereo partly shown) [1,10 dihydronootkatone, 1,10-dihydronootkatone], for which the “# Alive/10” value in data set [1] (0.002%, 1 hr) was found to be 10; in data set [1] (0.002%, 24 hr), 9; in data set [1] (0.004%, 1 hr) it was 10; in data set [1] (0.004%, 24 hr), 10; in data set [1] (0.008%, 1 hr), 10; in data set [1] (0.008%, 24 hr), 6. For the same compound, the “# Alive/10” value in data set [1] (0.016%, 1 hr) was determined as 10; in data set [1] (0.016%, 24 hr), 6; in data set [1] (0.031%, 1 hr) it was 10; in data set [1] (0.031%, 24 hr) it was 3; in data set [1] (0.063%, 1 hr), 10; in data set [1] (0.063%, 24 hr), 1. Besides, the “# Alive/10” value is 10 in data set [1] (0.125%, 1 hr); 2 in data set [1] (0.125%, 24 hr); 10 in data set [1] (0.25%, 1 hr); 1 in data set [1] (0.25%, 24 hr). In addition, the LC50 in data set [1] is reported as 0.0097%.
For the compound `CC(C)C1CCC2=CC(=O)CC(C)C2(C)C1` (stereo not shown) [11,12 dihydronootkatone, 11,12-dihydronootkatone], the “# Alive/10” value in data set [1] (0.002%, 1 hr) is reported as 10; in data set [1] (0.002%, 24 hr), 6; in data set [1] (0.004%, 1 hr), 10; in data set [1] (0.004%, 24 hr), 7; in data set [1] (0.008%, 1 hr) it was 10; in data set [1] (0.008%, 24 hr), 1. The “# Alive/10” value in data set [1] (0.016%, 1 hr) is 10; in data set [1] (0.016%, 24 hr) it was 0; in data set [1] (0.031%, 1 hr), 10; in data set [1] (0.031%, 24 hr), 0; in data set [1] (0.063%, 1 hr), 10; in data set [1] (0.063%, 24 hr) it was 0. Moreover, the “# Alive/10” value in data set [1] (0.125%, 1 hr) was 2; in data set [1] (0.125%, 24 hr) it was 0; in data set [1] (0.25%, 1 hr), 2; in data set [1] (0.25%, 24 hr), 0. In data set [1], the LC50 is 0.0071%.
On to `C=C(C)[C@@H]1CCC2=CC(=O)C[C@@H](C)[C@]2(C)C1` [Nootkatone, nootkatone], for which the “dissolution of nootkatone in solvent” value in data set [2] (glycerin) and in data set [2] (water) was “unable to successfully dissolve” in each case. For the same compound, the “# Alive/10” value in data set [1] (0.01%, 1 hr) is 7 and 5; in data set [1] (0.01%, 24 hr), 5 and 7; in data set [1] (0.02%, 1 hr), 5; in data set [1] (0.02%, 24 hr), 0; in data set [1] (0.03%, 1 hr), 4; in data set [1] (0.03%, 24 hr) it was 0. The “# Alive/10” value in data set [1] (0.06%, 1 hr) is 4; in data set [1] (0.06%, 24 hr), 0; in data set [1] (0.13%, 1 hr), 4; in data set [1] (0.13%, 24 hr) it was 0; in data set [1] (0.25%, 1 hr), 3 and 2; in data set [1] (0.25%, 24 hr) it was 0. Besides, in data set [1] (0.5%, 24 hr), the “# Alive/10” value turned out to be 0. Moreover, the LC50 in data set [1] (listed as Nootkatone control) was 0.0074% and 0.0073%.
On to `CC(C)[C@@H]1CCC2CC(=O)C[C@@H](C)[C@]2(C)C1` (stereo partly shown) [Tetrahydronootkatone, tetrahydronootkatone], for which the “# Alive/10” value in data set [1] (0.002%, 1 hr) is on record as 10; in data set [1] (0.002%, 24 hr), 10; in data set [1] (0.004%, 1 hr), 10; in data set [1] (0.004%, 24 hr) it was 10; in data set [1] (0.008%, 1 hr), 9; in data set [1] (0.008%, 24 hr) it was 9. Besides, the “# Alive/10” value stood at 7 in data set [1] (0.016%, 1 hr); 7 in data set [1] (0.016%, 24 hr); 7 in data set [1] (0.031%, 1 hr); 7 in data set [1] (0.031%, 24 hr); 6 in data set [1] (0.063%, 1 hr); 5 in data set [1] (0.063%, 24 hr). For the same compound, the “# Alive/10” value in data set [1] (0.125%, 1 hr) is on record as 6; in data set [1] (0.125%, 24 hr) it was 4; in data set [1] (0.25%, 1 hr), 5; in data set [1] (0.25%, 24 hr), 1. Besides, the LC50 in data set [1] is listed as 0.0780%.
